Laboratory results reported in US7485315B2, “Compositions comprising a compound of low solubility and a lipophilic amino acid derivative, uses thereof and process for dissolving a compound of low solubility” (L'Oreal, priority 2001, dated 2009).

Columns and labels:
[1] = Dissolution by lipophilic amino acid derivatives without recrystallization; format: physicochemical; conditions: in lipophilic amino acid derivatives, after 24 hours at 25° C.
Experimental: By way of illustration, the lipophilic amino acid derivatives used for the purposes of the present patent application allowed the dissolution of: • more than 20% of aminophenol derivatives without recrystallization after three weeks at 25° C., • more than 15% of salicylic acid derivatives without recrystallization after three weeks at 25° C. • about 4% of diosgenin or hecogenin acetate without recrystallization after 24 hours at 25° C.

[2] = Simple solubility in isopropyl N-lauroylsarcosinate
Experimental: Protocol: The derivatives of low solubility in water are weighed out and placed in a sealed pill bottle. The required amount of solvent is added. The suspension is stirred (magnetic stirring) at 80° C. for not more than 1 hour.
The non-solubility of the active agent in the solvent is characterized macroscopically by a precipitate or just a cloudy solution, and microscopically by the presence of crystals.
The solvent used is isopropyl N-lauroylsarcosinate.

[3] = content 2% in isopropyl N-lauroylsarcosinate
[4] = content 5% in isopropyl N-lauroylsarcosinate

Row | Structure (SMILES) | Stability over time at 25° C. (clear for) [2, 4] | Amount dissolved without recrystallization [1] | Stability over time at 25° C. (clear for) [2, 3] | also measured
1 | C[C@@H]1CC[C@@]2(OC1)O[C@H]1C[C@H]3[C@@H]4CC=C5C[C@@H](O)CC[C@]5(C)[C@H]4CC[C@]3(C)[C@H]1[C@@H]2C [Diosgenin, 5-spirostene-3-β-ol] | – | about 4% | clear for 3 weeks | –
2 | CCCCCCCCCCCCNc1ccnc(N)[n+]1[O-] [2-amino-4-dodecylaminopyrimidine 3-oxide] | – | – | – | Stability over time at 25° C. (clear for) ([2]; content 1% in isopropyl N-lauroylsarcosinate): clear for 1 day
3 | CC(=O)O[C@H]1CC[C@@]2(C)[C@@H](CC[C@@H]3[C@@H]2CC(=O)[C@]2(C)[C@@H]4[C@H](C[C@@H]32)O[C@]2(CC[C@@H](C)CO2)[C@H]4C)C1 [Hecogenin acetate, (3β, 5α, 25R)-3-hydroxyspirostan-12-one (hecogenin acetate)] | – | about 4% | clear for 1 day | –

The next lines start with results.

Row | Stability over time at 25° C. (clear for) [2, 4] | Structure (SMILES) | Amount dissolved without recrystallization [1] | Stability over time at 25° C. (clear for) [2, 3] | also measured
4 | clear for 18 days | CCOC(=O)Nc1ccc(O)cc1 [N-ethoxycarbonyl-para-aminophenol, N-ethoxycarbonyl-4-para-aminophenol] | – | – | Stability over time at 25° C. (clear for) ([2]; content 20% in isopropyl N-lauroylsarcosinate): clear for 6 days; Stability over time at 25° C. (clear for) ([2]; content 23% in isopropyl N-lauroylsarcosinate): clear for 6 days; Stability over time at 25° C. (clear for) ([2]; content 26% in isopropyl N-lauroylsarcosinate): clear for 1 day
5 | clear for 7 days | CCCCCCCC(=O)c1ccc(O)c(C(=O)O)c1 [5-n-octanoylsalicylic acid] | – | – | Stability over time at 25° C. (clear for) ([2]; content 9% in isopropyl N-lauroylsarcosinate): clear for 4 days; Stability over time at 25° C. ([2]; content 27% in isopropyl N-lauroylsarcosinate): clear
